Like-named read-outs stand apart in the source and are kept apart here.
Assays:
[1] = tested on: MCF-7 (breast adenocarcinoma); assay: sulforhodamine B cell cytotoxicity assay, MCF-7; assay type: cell-based; conditions: Homo sapiens, MCF7; Table 2; SRB assay, 48 h of exposure
Experimental: (§1) The human cancer cell lines—KB (oral squamous cell carcinoma). C33A (cervical carcinoma), MCF-7 (breast adenocarcinoma), A549 (lung carcinoma) and mouse embryo fibroblast (NIH3T3) were obtained from American Type Culture Collection (ATCC), USA. These cells were grown in recommended media supplemented with 10% FBS, 50 μg/mL gentamycin and 2.5 μg/mL amphotericin B in a 5% CO2 humidified atmosphere at 37° C. Cells below 15 passage level were used for this study. A colorimetric sulforhodamine B assay was used for the measurement of cell cytotoxicity. 1×10^4 cells (in 180 μL) were added to each well of 96-well plate and incubated overnight to allow for cell attachment. Cells were then treated with serial two-fold dilutions of test compounds (100 to 1.6 μM) and untreated cells receiving the same volume of medium served as control. After 48 h of exposure, cells were fixed with ice-cold 50% TCA, stained with 0.4% (w/v) SRB in 1% acetic acid, washed and air dried. Bound dye was dissolved in 150 μL of 10 mM tris base. The plates were read at 540 nm absorbance on plate reader (Polarstar Galaxy, BMG, Germany). The cytotoxic effects of compounds were calculated as % inhibition in cell growth as per the formula […].

human cancer cell lines = assay: in vitro anticancer activity, cell line panel (cell line not specified); assay type: cell-based; conditions: poor activity or lack of activity against other cell lines
Experimental: as §1

[2] = tested on: C33A (cervical carcinoma); assay: sulforhodamine B cell cytotoxicity assay, C33A; assay type: cell-based, human; conditions: for IC50: Homo sapiens, C-33-A
Experimental: as §1

[3] = tested on: HeLa Human cervical cancer cells; assay: human tumor xenograft in SCID mice, tumor growth; assay type: in vivo; conditions: for T/C (tumor growth inhibition index): 100 mg/kg daily oral upto 15 days; for RTV (relative tumor volume): 100 mg/kg p.o. daily up to 15 days
Experimental: (§2) The in vivo efficacy studies were performed using human tumor xenografts in SCID mice. Human cervical cancer cells (HeLa) were injected subcutaneously (1×10^7 cells in 100 μl HBSS medium) on the right flank of each mouse. Tumor bearing mice were divided randomly into treatment groups and the treatment schedules began on day 7 of the xenograft. The test compound (S009-0131) was administered orally to each mouse at a daily dose of 100 mg/kg body weight, for 15 days. The standard anti-cancer drug Adriamycin (ADR) was used as ‘positive’ control and given to each mouse as an i.v. dose of 2 mg/kg body weight, Q7d×3 ([…]). The group of vehicle treated animals served as ‘negative’ control.
(§3) The tumor volume, body weight and signs of overt toxicity were monitored and recorded for the entire duration of the experiment (60 days). Tumor volumes were calculated using the formula (a×b2)/2, where a, b are two longest perpendicular diameters. Tumor growth was expressed in terms of relative tumor volume (RTV) which is the ratio of tumor volume on a particular day to the tumor volume on day 1 of the study. Tumor growth inhibition index (T/C) was calculated as follows: T/C=Average RTV of test group mice/Average RTV of control group mice.

A549 (lung carcinoma) = assay: sulforhodamine B cell cytotoxicity assay, A549; assay type: cell-based; conditions: Homo sapiens, Table 2, SRB assay, 48 h of exposure
Experimental: as §1

[4] = animal weight and overt toxicity in the xenograft study; assay type: in vivo, SCID mice; conditions: for Average Animal weight: 100 mg/kg daily oral upto 15 days
Experimental: as §2, §3

[5] = tested on: mouse embryo fibroblast (NIH3T3); assay: sulforhodamine B cell cytotoxicity assay, NIH3T3 non-cancer cells; assay type: cell-based
Experimental: as §1

[6] = tested on: KB (oral squamous cell carcinoma); assay: sulforhodamine B cell cytotoxicity assay, KB; assay type: cell-based; conditions: Homo sapiens; Table 2; SRB assay, 48 h of exposure
Experimental: as §1

Q: With `CCOC(=O)c1cc2cc(C=CC(=O)c3ccc(C)cc3)cc(C(C)CC)c2oc1=O` (stereo not shown) [Example S009-0131, Ethyl 8-sec-butyl-2-oxo-6-(3-oxo-3-p-tolylprop-1-enyl)-2H-chromene-3-carboxylate] as the compound, how does the IC50 [1] read?
A: 81.1 µM

Q: And the “selectivity among cell lines” value (human cancer cell lines)?
A: most selective

Q: What about the IC50 ([2]; Table 1, SRB assay, 48 h of exposure, read-out: IC50 C33A (cervical cancer)) of the same compound?
A: 3.59 µM

Q: What about the IC50 ([2]; Table 2, SRB assay, 48 h of exposure, read-out: IC50 C33A (Cervical)) of the same compound?
A: 3.59 µM

Q: And the IC50 ([2]; read-out: IC50 against the C33A cell line)?
A: 3.59 µM

Q: And the “activity against cervical cancer (C33A)” value ([2]; in words)?
A: highly active

Q: What about the “activity compared with standard drug adriamycin” value ([3]; HeLa xenograft, SCID mice) of the same compound?
A: somewhat better than that of the standard drug adriamycin

Q: And the “T/C (tumor growth inhibition index)” value ([3]; day 1)?
A: 1

Q: And the “RTV (relative tumor volume)” value ([3]; day 1)?
A: 1

Q: What about the “T/C (tumor growth inhibition index)” value ([3]; day 5) of the same compound?
A: 0.58

Q: What about the “RTV (relative tumor volume)” value ([3]; day 5) of the same compound?
A: 0.76

Q: And the “T/C (tumor growth inhibition index)” value ([3]; day 9)?
A: 0.48

Q: What about the “RTV (relative tumor volume)” value ([3]; day 9) of the same compound?
A: 0.79

Q: What about the “T/C (tumor growth inhibition index)” value ([3]; day 12) of the same compound?
A: 0.61

Q: What about the “RTV (relative tumor volume)” value ([3]; day 12) of the same compound?
A: 1.21

Q: And the “T/C (tumor growth inhibition index)” value ([3]; day 15)?
A: 0.39

Q: What about the “RTV (relative tumor volume)” value ([3]; day 15) of the same compound?
A: 1.28

Q: What about the “T/C (tumor growth inhibition index)” value ([3]; day 19) of the same compound?
A: 0.28

Q: And the “RTV (relative tumor volume)” value ([3]; day 19)?
A: 1.01

Q: And the “T/C (tumor growth inhibition index)” value ([3]; day 22)?
A: 0.33

Q: And the “RTV (relative tumor volume)” value ([3]; day 22)?
A: 1.73

Q: And the “T/C (tumor growth inhibition index)” value ([3]; day 25)?
A: 0.29

Q: What about the “RTV (relative tumor volume)” value ([3]; day 25) of the same compound?
A: 1.82

Q: What about the “T/C (tumor growth inhibition index)” value ([3]; day 29) of the same compound?
A: 0.33

Q: And the “RTV (relative tumor volume)” value ([3]; day 29)?
A: 2.39

Q: And the “T/C (tumor growth inhibition index)” value ([3]; day 33)?
A: 0.42

Q: What about the “RTV (relative tumor volume)” value ([3]; day 33) of the same compound?
A: 4.20

Q: What about the “T/C (tumor growth inhibition index)” value ([3]; day 37) of the same compound?
A: 0.42

Q: What about the “T/C (tumor growth inhibition index)” value ([3]; day 41) of the same compound?
A: 0.44

Q: What about the “T/C (tumor growth inhibition index)” value ([3]; day 44) of the same compound?
A: 0.45

Q: And the “T/C (tumor growth inhibition index)” value ([3]; day 51)?
A: 0.38

Q: What about the “tumor volumes relative to the vehicle control” value ([3]; oral administration, mice bearing HeLa cells) of the same compound?
A: significant reduction of tumor volumes

Q: And the IC50 (A549 (lung carcinoma))?
A: 32.8 µM

Q: And the “Average Animal weight” value ([4]; day 1)?
A: 24.2 grams

Q: And the “Average Animal weight” value ([4]; day 5)?
A: 24.2 grams

Q: And the “Average Animal weight” value ([4]; day 9)?
A: 23.5 grams

Q: What about the “Average Animal weight” value ([4]; day 12) of the same compound?
A: 18.5 grams

Q: What about the “Average Animal weight” value ([4]; day 15) of the same compound?
A: 22.6 grams

Q: And the “Average Animal weight” value ([4]; day 19)?
A: 22.4 grams

Q: And the “Average Animal weight” value ([4]; day 22)?
A: 23.0 grams

Q: And the “Average Animal weight” value ([4]; day 25)?
A: 23.2 grams

Q: What about the “Average Animal weight” value ([4]; day 29) of the same compound?
A: 23.6 grams

Q: And the “Average Animal weight” value ([4]; day 33)?
A: 23.3 grams

Q: What about the “Average Animal weight” value ([4]; day 37) of the same compound?
A: 23.0 grams

Q: What about the “Average Animal weight” value ([4]; day 41) of the same compound?
A: 23.4 grams

Q: What about the “Average Animal weight” value ([4]; day 44) of the same compound?
A: 23.8 grams

Q: And the “Average Animal weight” value ([4]; day 51)?
A: 23.4 grams

Q: And the “toxicity to the animals (loss of weight)” value ([4]; during the period of the study)?
A: apparently non-toxic

Q: And the IC50 ([5]; Table 1, SRB assay, 48 h of exposure, read-out: IC50 NIH3T3 (mouse fibroblast))?
A: > 150 µM

Q: What about the IC50 ([5]; Table 2, SRB assay, 48 h of exposure, read-out: IC50 NIH3T3 (Non-cancer, fibroblast)) of the same compound?
A: > 150 µM

Q: What about the IC50 ([5]; read-out: IC50 fibroblast cells NIH3T3) of the same compound?
A: > 150 µM

Q: And the IC50 [6]?
A: 18 µM

Reference: patent publication US8815940B2, “Coumarin-chalcones as anticancer agents” (Council of Scientific & Industrial Research, priority 2010, dated 2014)
